In patent US20160287549A1, “NOVEL METHODS FOR TREATING NEURODEGENERATIVE DISEASES” (GENZYME CORPORATION, priority 2013, published 2016):

Columns and labels:
SOD1-G93A mice [1] = assay: Survival of symptomatic SOD1-G93A ALS mice; type: in vivo
Protocol: SOD1-G93A transgenic mice (also known as G93A-SOD1 mice) are currently the best available model to test experimental therapeutics for the treatment of ALS. […] For example, the transgenic mice present with progressive muscular atrophy and weakness. Neuroinflammation, demyelination, and motor neuron death are observed in the mice, and ultimately, the mice become paralyzed and have a shortened lifespan.
To evaluate the effectiveness of DHODH inhibitors in treating ALS, 10 mg/kg of teriflunomide was administered by oral gavage to 82 day old SOD1-G93A male mice.
(§1) In a second experiment, 20 mg/kg of teriflunomide was administered to 82 day old SOD1-G93A male and female mice (n=14/sex).
Male SOD1-G93A mice (n=14) were administered W19 (subcutaneous injection at 10 mg/kg for 5 consecutive days and then every 10 mg/kg every 2 weeks thereafter) was administered starting at 82 days of age. After 7 days, peripheral blood was collected and lymphocyte depletion was evaluated using flow cytometry.
Transgenic male (n=84) and female littermate (n=28) mice that express the mutant SOD1^G93A transgene at high-levels were divided to achieve cohort, sibling and sex matching amongst groups for these studies (Scott, S., et al. “Design, Power, and Interpretation of Studies in the Standard Murine Model of ALS.” Amyotrophic Lateral Sclerosis 9.1 (2008): 4-15. SCOPUS. Web. 18 Nov. 2013). Mutant SOD1 gene copy number and SOD1 protein expression were confirmed by PCR and western blot analysis. Animals were housed under light:dark (12:12 h) cycle and provided with food and water ad libitum. All procedures were performed using protocols approved by Genzyme Corporation's Institutional Animal Care and Use Committees.
Mice were scored into the following phases: presymptomatic (Pre-SYMP)=no visible motor abnormalities (i.e., normal hind limb splay); Symptomatic (SYMP)=abnormal hindlimb splay; End stage (ES)=onset of limb paralysis (typically hindlimb); and Moribund (MB)=unable to right themselves within 30 sec after being placed on their back.

SOD1-G93A mice [2] = assay: Grip strength performance test in SOD1-G93A mice; type: in vivo; conditions: for grip strength loss (percent decline from baseline): 20 mg/kg oral gavage, baseline at 82 days, control 46.14-67.38% loss
Protocol: as §1
Testing of motor function using a grip strength device (Columbus Instruments, Columbus, Ohio) began at 60-70 days of age as previously described (Dodge, J. C. et al. (2008) 16:1056-1064). Each weekly session consisted of 4 tests per animal. Data shown represent percent decline in strength from baseline. Baseline measurements were made at 82 days of age. Percent reduction is grip strength is shown for vehicle treated mice scored as ES and age matched sibling mice treated with teriflunomide.

[3] = cited from earlier work
PfDHODH = PfDHODH (Plasmodium falciparum, UniProt Q08210); conditions: cited from earlier work
PfDHODH, sequence (Q08210 24-569): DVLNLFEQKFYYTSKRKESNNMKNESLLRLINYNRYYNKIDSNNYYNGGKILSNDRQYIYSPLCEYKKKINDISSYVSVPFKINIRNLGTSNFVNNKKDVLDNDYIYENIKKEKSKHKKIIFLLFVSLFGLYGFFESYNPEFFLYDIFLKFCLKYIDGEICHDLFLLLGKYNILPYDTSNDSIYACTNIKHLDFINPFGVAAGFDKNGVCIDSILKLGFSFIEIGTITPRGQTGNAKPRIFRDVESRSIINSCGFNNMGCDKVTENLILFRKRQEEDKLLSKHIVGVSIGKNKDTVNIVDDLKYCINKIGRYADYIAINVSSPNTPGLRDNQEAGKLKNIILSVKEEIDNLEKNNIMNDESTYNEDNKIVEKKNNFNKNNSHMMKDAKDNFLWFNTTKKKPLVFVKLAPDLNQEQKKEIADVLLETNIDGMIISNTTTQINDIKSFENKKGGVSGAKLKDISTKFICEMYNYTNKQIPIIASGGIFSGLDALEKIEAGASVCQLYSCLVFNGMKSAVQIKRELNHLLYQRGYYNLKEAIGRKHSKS

hDHODH = hDHODH (Homo sapiens, UniProt Q02127); conditions: cited from earlier work
hDHODH, sequence (Q02127 whole entry): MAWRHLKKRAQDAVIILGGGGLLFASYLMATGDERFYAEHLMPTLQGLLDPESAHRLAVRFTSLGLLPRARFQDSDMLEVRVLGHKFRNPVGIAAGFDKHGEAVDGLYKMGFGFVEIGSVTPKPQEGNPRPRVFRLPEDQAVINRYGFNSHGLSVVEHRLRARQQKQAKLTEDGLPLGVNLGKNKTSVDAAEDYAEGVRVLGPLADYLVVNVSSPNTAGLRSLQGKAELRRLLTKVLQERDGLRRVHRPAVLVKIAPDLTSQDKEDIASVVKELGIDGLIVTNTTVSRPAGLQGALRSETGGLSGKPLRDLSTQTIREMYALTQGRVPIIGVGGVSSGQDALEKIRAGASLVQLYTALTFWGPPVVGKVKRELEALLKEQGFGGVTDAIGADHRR

L1210 murine leukemia = conditions: cited from earlier work
[4] = test system: murine colon 38 tumor model; conditions: tissue-specific modulation of uridine nucleotide pools; cited from earlier work

SMILES: C/C(O)=C(\C#N)C(=O)Nc1ccc(C(F)(F)F)cc1 [teriflunomide, (Z)-2-cyano-3-hydroxy-but-2-enoic acid-(4′-trifluoromethylphenyl)-amide]
- increase in survival as compared to control (SOD1-G93A mice [1]; 10 mg/kg oral gavage, 82 day old male SOD1-G93A mice): 7 days
- median survival (SOD1-G93A mice [1]; 10 mg/kg oral gavage, 82 day old male SOD1-G93A mice, control 127 days, p<0.005): 134 days
- median survival (SOD1-G93A mice [1]; 20 mg/kg oral gavage, 82 day old male and female SOD1-G93A mice, control 130 days, p<0.04): 146.5 days
- increase in median survival as compared to control (SOD1-G93A mice [1]; 20 mg/kg, 82 day old male and female SOD1-G93A mice): 16.5 days
- grip strength loss (percent decline from baseline) (SOD1-G93A mice [2]; female SOD1-G93A mice): −24.06%
- grip strength loss (percent decline from baseline) (SOD1-G93A mice [2]; male SOD1-G93A mice): −20.14%
- effect on muscle strength loss (SOD1-G93A mice [2]; 20 mg/kg, male and female SOD1-G93A mice): significantly slowed muscle strength loss
- solubility in acetone ([3]; acetone): sparingly soluble
- solubility in ethanol ([3]; ethanol): slightly soluble
- solubility in isopropanol ([3]; isopropanol): very slightly soluble
- solubility in polyethylene glycol ([3]; polyethylene glycol): slightly soluble
- solubility in water ([3]; water): practically insoluble

SMILES: CCOC(=O)C(=CNc1cccc(C(=O)OCC)c1)C(=O)OCC [Compound 58]
- PfDHODH(50 μM) (PfDHODH): 0 ± 4
- hDHODH(50 μM) (hDHODH): 5 ± 2

SMILES: Cc1c(-c2ccc(-c3ccccc3F)cc2)nc2ccc(F)cc2c1C(=O)O [Brequinar]
- anticancer activity (L1210 murine leukemia): exhibits anticancer activity
- effect on 5-fluorouracil antitumor activity [4]: potentiates 5-fluorouracil antitumor activity

SMILES: CCOC(=O)C(C#N)=CNc1ccc(C(=O)OCC)cc1 [Compound 60]
- PfDHODH(50 μM) (PfDHODH): 2 ± 4
- hDHODH(50 μM) (hDHODH): 2 ± 2

SMILES: CCOC(=O)C(=CNc1ccc(C(=O)OCC)cc1)C(=O)OCC [Compound 59]
- PfDHODH(50 μM) (PfDHODH): 15 ± 4
- hDHODH(50 μM) (hDHODH): 4 ± 2
